Patent publication US20240294541A1, “COMPOUNDS CONSTITUTING C20-MODIFIED SALINOMYCIN DERIVATIVES, A METHOD FOR OBTAINING THE SAME, A COMPOSITION CONTAINING THE SAME AND A USE OF SAID COMPOUNDS” (FILECLO SPOLKA Z OGRANICZONA ODPOWIEDZIALNOSCIA, priority 2021, published 2024)

Tests used:
Type in all cases: cell-based
[1] = system: BALB/3T3 (normal mouse fibroblasts); assay: In vitro cytotoxicity, SRB assay, normal BALB/3T3 fibroblasts; conditions: Table 4; BALB/3T3 normal mouse fibroblasts; read-out: IC50 (nM) BALB3T3 normal cells
[2] = system: SNU-16 (human gastric cancer); assay: cells; conditions: Table 4; for IC50: SNU-16 human gastric cancer cells, read-out: IC50 (nM) SNU-16; for SI SNU-16: selectivity coefficient vs normal BALB/3T3 fibroblasts
[3] = system: MV-4-11 (human biphenotypic leukaemia); assay: In vitro cytotoxicity, MTT assay, MV-4-11; conditions: for IC50: Homo sapiens, MV4-11, read-out: IC50 (nM) MV4-11
[4] = system: NCI-H358 (human lung cancer); assay: cells; conditions: Table 4; for IC50: NCI-H358 human lung cancer cells, read-out: IC50 (nM) NCI-H358; for SI NCI-H358: selectivity coefficient vs normal BALB/3T3 fibroblasts
[5] = system: MIA PaCa-2 (human pancreatic cancer); assay: cells; conditions: Table 4; for IC50: MIA PaCa-2 human pancreatic cancer cells, read-out: IC50 (nM) MIA PaCa-2; for SI MIA PaCa-2: selectivity coefficient vs normal BALB/3T3 fibroblasts
[6] = system: A2780Cis (cisplatin-resistant human ovarian cancer); assay: In vitro cytotoxicity, SRB assay, A2780Cis; conditions: for IC50: Homo sapiens, A2780cis, read-out: IC50 (nM) A2780Cis
[7] = system: PLC/PRF/5 (human liver cancer); assay: cells; conditions: Table 4; for IC50: PLC/PRF/5 human liver cancer cells, read-out: IC50 (nM) PLC/PRF/5; for SI PLC/PRF/5: selectivity coefficient vs normal BALB/3T3 fibroblasts
Hs294T (human melanoma) = assay: cells; conditions: Table 4; for IC50: Hs 294T, Hs294T human melanoma cells, read-out: IC50 (nM) Hs294T; for SI Hs294T: selectivity coefficient vs normal BALB/3T3 fibroblasts

Row | SMILES | IC50 [1] [nM] | IC50 [2] [nM] | SI SNU-16 [2] | SI MV4-11 [3] | IC50 [3] [nM] | IC50 [4] [nM] | SI NCI-H358 [4] | IC50 [5] [nM] | SI MIA PaCa-2 [5] | SI A2780Cis [6] | IC50 [6] [nM] | IC50 [7] [nM] | SI PLC/PRF/5 [7] | IC50 (Hs294T (human melanoma)) [nM] | SI Hs294T (Hs294T (human melanoma))
1 | CC[C@@H](C(=O)[C@@H](C)[C@@H](O)[C@H](C)[C@@H]1O[C@@H]([C@@H](CC)C(=O)O)CC[C@@H]1C)[C@H]1O[C@]2(C=C[C@@H](NC(=O)OCCOC)[C@]3(CC[C@@](C)([C@H]4CC[C@](O)(CC)[C@H](C)O4)O3)O2)[C@H](C)C[C@@H]1C [FLC-00459-1•Na] | 1070 | 535 | 2.0 | 31.8 | 33.6 | 531 | 2.01 | 78.3 | 13.6 | 30.7 | 34.7 | 92.2 | 11.6 | 786 | 1.4
2 | CC[C@@H](C(=O)[C@@H](C)[C@@H](O)[C@H](C)[C@@H]1O[C@@H]([C@@H](CC)C(=O)O)CC[C@@H]1C)[C@H]1O[C@]2(C=C[C@@H](NC(=O)OCCOCCCl)[C@]3(CC[C@@](C)([C@H]4CC[C@](O)(CC)[C@H](C)O4)O3)O2)[C@H](C)C[C@@H]1C [FLC-00454-1•Na] | 313 | 103 | 3.0 | 17.8 | 17.6 | 434 | 0.72 | 45.2 | 6.9 | 58.9 | 5.32 | 63.1 | 5.0 | 1040 | 0.3
3 | CC[C@@H](C(=O)[C@@H](C)[C@@H](O)[C@H](C)[C@@H]1O[C@@H]([C@@H](CC)C(=O)O)CC[C@@H]1C)[C@H]1O[C@]2(C=C[C@@H](NC(=O)Oc3ccccc3)[C@]3(CC[C@@](C)([C@H]4CC[C@](O)(CC)[C@H](C)O4)O3)O2)[C@H](C)C[C@@H]1C [FLC-00429-1•Na] | – | 168 | – | – | – | 76.1 | – | 39.8 | – | – | – | 27 | – | 115 | –
4 | CC[C@@H](C(=O)[C@@H](C)[C@@H](O)[C@H](C)[C@@H]1O[C@@H]([C@@H](CC)C(=O)O)CC[C@@H]1C)[C@H]1O[C@]2(C=C[C@@H](NC(=O)c3ccccc3Cl)[C@]3(CC[C@@](C)([C@H]4CC[C@](O)(CC)[C@H](C)O4)O3)O2)[C@H](C)C[C@@H]1C [FLC-00462-1•Na] | 552 | 339 | 1.6 | 40.4 | 13.7 | 397 | 1.39 | 52 | 10.6 | 24.5 | 22.5 | 63.8 | 8.6 | 1810 | 0.3
5 | CC[C@@H](C(=O)[C@@H](C)[C@@H](O)[C@H](C)[C@@H]1O[C@@H]([C@@H](CC)C(=O)O)CC[C@@H]1C)[C@H]1O[C@]2(C=C[C@@H](NC(=S)Nc3cccc(C(F)(F)F)c3)[C@]3(CC[C@@](C)([C@H]4CC[C@](O)(CC)[C@H](C)O4)O3)O2)[C@H](C)C[C@@H]1C [FLC-00386-1] | – | 10.1 | – | – | – | 51.3 | – | 11.3 | – | – | – | 10.2 | – | 147 | –
6 | C=CCOC(=O)N[C@@H]1C=C[C@]2(O[C@H]([C@@H](CC)C(=O)[C@@H](C)[C@@H](O)[C@H](C)[C@@H]3O[C@@H]([C@@H](CC)C(=O)O)CC[C@@H]3C)[C@@H](C)C[C@H]2C)O[C@@]12CC[C@@](C)([C@H]1CC[C@](O)(CC)[C@H](C)O1)O2 [FLC-00425-1•Na] | – | 420 | – | – | – | 234 | – | 269 | – | – | – | 26.5 | – | 362 | –
7 | CC[C@@H](C(=O)[C@@H](C)[C@@H](O)[C@H](C)[C@@H]1O[C@@H]([C@@H](CC)C(=O)O)CC[C@@H]1C)[C@H]1O[C@]2(C=C[C@@H](NC(=O)OCc3ccccc3)[C@]3(CC[C@@](C)([C@H]4CC[C@](O)(CC)[C@H](C)O4)O3)O2)[C@H](C)C[C@@H]1C [FLC-00431-1•Na] | – | 143 | – | – | – | 56.1 | – | 28.9 | – | – | – | 5.8 | – | 115 | –
